Assay results taken from the NIST ThermoML archive (doi:10.1021/je050261u).

Assay: xn = mol fraction of the nth substance listed
Settings: Liquid, Vibrating tube method

CCCCCCC [heptane] + CCO
mass density [kg/m3]
Settings | x2 = 0 | x2 = 0.125 | x2 = 0.25 | x2 = 0.375 | x2 = 0.5 | x2 = 0.625 | x2 = 0.75 | x2 = 0.875
293.15 K, 100 kPa | 683.9 | 688.1 | 694.5 | 701.9 | 711.2 | 722.6 | 737.9 | 758.9
293.15 K, 5000 kPa | 688.2 | 692.5 | 699 | 706.4 | 715.7 | 727.1 | 742.3 | 763.2
293.15 K, 10000 kPa | 692.5 | 696.8 | 703.3 | 710.9 | 719.9 | 731.4 | 746.6 | 767.4
293.15 K, 15000 kPa | 696.5 | 701 | 707.3 | 714.9 | 724 | 735.4 | 750.7 | 771.4
293.15 K, 20000 kPa | 700.5 | 704.9 | 711.3 | 718.9 | 728 | 739.4 | 754.6 | 775.3
293.15 K, 25000 kPa | 704.1 | 708.5 | 714.9 | 722.4 | 731.6 | 743 | 758.3 | 778.9
293.15 K, 30000 kPa | 707.5 | 712 | 718.4 | 725.9 | 735.1 | 746.5 | 761.7 | 782.3
293.15 K, 35000 kPa | 710.8 | 715.4 | 721.7 | 729.3 | 738.5 | 749.9 | 765.1 | 785.6
293.15 K, 40000 kPa | 714 | 718.4 | 725 | 732.5 | 741.7 | 753.1 | 768.4 | 788.9
293.15 K, 45000 kPa | 716.9 | 721.5 | 728 | 735.5 | 744.9 | 756.2 | 771.4 | 791.9
293.15 K, 50000 kPa | 719.8 | 724.5 | 731.1 | 738.5 | 747.9 | 759.3 | 774.5 | 794.9
293.15 K, 55000 kPa | 722.7 | 727.4 | 733.9 | 741.4 | 750.8 | 762.2 | 777.4 | 797.8
293.15 K, 60000 kPa | 725.4 | 730.2 | 736.7 | 744.2 | 753.6 | 765 | 780.2 | 800.6
293.15 K, 65000 kPa | 728 | 732.9 | 739.4 | 746.9 | 756.3 | 767.8 | 782.9 | 803.4
303.15 K, 100 kPa | 675.1 | 679.8 | 685.3 | 692.7 | 701.9 | 713.4 | 728.9 | 749.9
303.15 K, 5000 kPa | 680 | 684.8 | 690.2 | 697.6 | 706.9 | 718.3 | 733.7 | 754.6
303.15 K, 10000 kPa | 684.4 | 689.3 | 694.8 | 702.1 | 711.4 | 722.8 | 738.2 | 759
303.15 K, 15000 kPa | 688.9 | 693.8 | 699.3 | 706.8 | 715.9 | 727.4 | 742.7 | 763.3
303.15 K, 20000 kPa | 692.8 | 697.8 | 703.4 | 710.7 | 720 | 731.4 | 746.7 | 767.3
303.15 K, 25000 kPa | 696.8 | 701.7 | 707.3 | 714.7 | 723.9 | 735.4 | 750.6 | 771.1
303.15 K, 30000 kPa | 700.3 | 705.3 | 710.9 | 718.3 | 727.5 | 739 | 754.2 | 774.7
303.15 K, 35000 kPa | 703.7 | 708.9 | 714.4 | 721.8 | 731.1 | 742.6 | 757.7 | 778.2
303.15 K, 40000 kPa | 707.1 | 712.3 | 717.9 | 725.3 | 734.5 | 746 | 761.2 | 781.5
303.15 K, 45000 kPa | 710.2 | 715.4 | 721.1 | 728.5 | 737.7 | 749.2 | 764.4 | 784.8
303.15 K, 50000 kPa | 713.4 | 718.5 | 724.2 | 731.6 | 740.8 | 752.2 | 767.5 | 787.9
303.15 K, 55000 kPa | 716.4 | 721.4 | 727.3 | 734.7 | 743.9 | 755.3 | 770.6 | 791
303.15 K, 60000 kPa | 719.2 | 724.4 | 730.2 | 737.5 | 746.9 | 758.3 | 773.5 | 793.9
303.15 K, 65000 kPa | 722 | 727.2 | 733 | 740.4 | 749.7 | 761.1 | 776.4 | 796.7
313.15 K, 100 kPa | 666.4 | 670.7 | 676 | 683.3 | 692.6 | 704.2 | 719.8 | 740.8
313.15 K, 5000 kPa | 671.6 | 676.1 | 681.4 | 688.7 | 697.9 | 709.5 | 724.9 | 745.8
313.15 K, 10000 kPa | 676.5 | 681.1 | 686.4 | 693.6 | 702.9 | 714.3 | 729.8 | 750.5
313.15 K, 15000 kPa | 681 | 685.6 | 690.9 | 698.2 | 707.5 | 718.9 | 734.3 | 755
313.15 K, 20000 kPa | 685.3 | 689.9 | 695.3 | 702.6 | 711.9 | 723.3 | 738.5 | 759.1
313.15 K, 25000 kPa | 689.4 | 694 | 699.4 | 706.7 | 716 | 727.4 | 742.6 | 763.1
313.15 K, 30000 kPa | 693.3 | 697.9 | 703.4 | 710.5 | 719.9 | 731.3 | 746.5 | 766.9
